Broadly, the IC50 is the midpoint of a concentration-inhibition curve.

What all share (assay type): cell-based
For one experiment, the system named is A431 (epidermoid). Put plainly: MTT cytotoxicity assay, A431. The following applies: Homo sapiens, A-431, 96 h, read-out: IC50 (nM) A431. How it is done:
(§1) The cytotoxicity potential of the compounds of the invention 16c-h was compared with the comparative compounds 16a, 16b and GWL-78 in a number of tumour cell lines and the non-cancer cell line WI38 after 96 hours exposure using the MTT (3-(4,5-Dimethylthiazol-2-yl)-2,5-diphenyltetrazolium bromide) colorimetric assay, as described below.
(§2) A panel of several types of human cancer cell lines including epidermoid (A431), lung (A549), ovarian (A2780) and breast (MCF7 and MDAMB-231), as well as the non-tumour cell line WI38, were used to determine the cytotoxicity of the compounds. The cells were grown in normal conditions at 37° C. under a 5% CO2 humidified atmosphere, either in Dulbecco's Modified Eagle Medium or Modified Eagle Medium (depending on the cell line), supplemented with 10% fetal bovine serum (Biosera, UK), 1% L-glutamine, 1% non-essential amino acids and 0.05% hydrocortisone (Gibco, Invitrogen, USA). Cells were then seeded into 96-well plates in a total volume of 160 μl, and allowed to reach a 30-40% degree of confluence before starting the experiment. The ligands were dissolved in sterilized ultrapure water at a maximum concentration of 100 μM, and serial decimal dilutions prepared. These were added to the cells in a volume of 40 μl. After 96 hours of continuous exposure to each ligand, the cytotoxicity was determined by the MTT (3-(4,5-Dimethylthiazol-2-yl)-2,5-diphenyltetrazolium bromide) (Lancaster Synthesis Ltd, UK) colorimetric assay (Skehan P, S. R., et al., Journal of the National Cancer Institute 1990, 82, 1107). Absorbance was quantified by spectrophotometry at A=570 nm (ELx808, Bio-Tek Instruments, Inc., USA). IC50 values were calculated by a dose-response analysis using the Origin 6.0™ software.

The test system of the next experiment is A549 (lung). Nature of the experiment: MTT cytotoxicity assay, A549. As to conditions: Homo sapiens, A549, 96 h, read-out: IC50 (nM) A549. How it is done:
as §1, §2
(In general: Tetrazolium dyes change colour on reduction, which living cells bring about.)

A further experiment deals with MCF7 (breast). Nature of the experiment: MTT cytotoxicity assay, MCF7. As to conditions: Homo sapiens, MCF7, 96 h, read-out: IC50 (nM) MCF7. How it is done: as §1, §2
The subject of a further experiment is MDAMB-231 (breast). Put plainly: MTT cytotoxicity assay, MDAMB-231. As to conditions: Homo sapiens, MDA-MB-231, 96 h, read-out: IC50 (nM) MDAMB-231. How it is done: as §1, §2
For a further experiment, the system named is Mia Paca 2. Put plainly: MTT cytotoxicity assay, Mia Paca 2. As to conditions: Homo sapiens, MIA PaCa-2, 96 h, read-out: IC50 (nM) Mia Paca 2. How it is done: as §1, §2
Another experiment deals with WI38. Nature of the experiment: MTT cytotoxicity assay, non-tumour cell line WI38. As to conditions: Homo sapiens, WI-38, 96 h, read-out: IC50 (nM) WI38. The method, then: as §1, §2
Another experiment relates to primary CLL cells. Nature of the experiment: Annexin V/propidium iodide flow cytometry assay in primary CLL cells. As to conditions: CLL cell. The method, then:
The cytotoxicity potential of the compounds of the invention 16c-h was also compared with the comparative compounds 16a, 16b and GWL-78 in a primary CLL cell lines using the Annexin V assay (van Engeland, M, et al., Cytometry 1998, 31, 1-9), as described below.
Freshly isolated peripheral blood CLL cells (1×10^8 mL^−1) were cultured in RPMI medium (Invitrogen, Paisley, U.K.) supplemented with 100 U/mL penicillin, […] streptomycin, and 10% fetal calf serum. The cells were incubated at 37° C. in a humidified 5% CO2 atmosphere in the presence of each compound. All compounds were dissolved in DMSO and were evaluated in serial dilutions against the primary CLL cells. In addition, control cultures were carried out to which no drug was added. The cytotoxic effects of the compounds were quantified using an annexin V/propidium iodide flow cytometry assay (Bender Medsystems, Vienna, Austria). All assays were performed in duplicate, and LD50 values were calculated from sigmoidal dose-response curves using the Prism 6.0 software (Graphpad Software Inc., San Diego, Calif.). The sigmoidal dose-response curves were derived by plotting log [compound concentration] against the percentage apoptosis induced by that concentration. A wide range of concentrations were used to establish the biologically active range for each individual compound.
In general terms: Flow cytometry measures light scatter and fluorescence of single cells or particles in a stream.

In another experiment the test system is A2780 (ovarian). Nature of the experiment: MTT cytotoxicity assay, A2780. The following applies: Homo sapiens, A2780, 96 h, read-out: IC50 (nM) A2780. The method, then:
as §1, §2

`COC(=O)c1cc(NC(=O)c2nc(NC(=O)c3cc(-c4ccc(NC(=O)CCCOc5cc6c(cc5OC)C(=O)N5CCC[C@H]5C=N6)cc4)cn3C)cn2C)cn1C` [Compound 16h, (S)-methyl 4-(4-(4-(4-(4-(7-methoxy-5-oxo-2,3,5,11a-tetrahydro-1H-pyrrolo[2,1-c][1,4]benzodiazepine-8-yloxy)butanamido)phenyl)-1-methyl-1H-pyrrole-2-carboxamido)-1-methyl-1H-imidazole-2-carboxamido)-1-methyl-1H-pyrrole-2-carboxylate]: the IC50 in the experiment with A431 (epidermoid) was found to be 0.306 nM; in the experiment on A549 (lung) it was 0.45 nM; in the experiment on MCF7 (breast) it was 0.075 nM; with MDAMB-231 (breast), 0.015 nM; with Mia Paca 2, 0.25 nM; with WI38, 65.6 nM. In the experiment with primary CLL cells, this compound returned a half-inhibitory concentration (IC50) of 0.037 nM.

Regarding `COC(=O)c1cc(NC(=O)c2cc(NC(=O)c3cc(-c4ccc(NC(=O)CCCOc5cc6c(cc5OC)C(=O)N5CCC[C@H]5C=N6)cc4)cn3C)cn2C)cn1C` [Compound 16g, (S)-methyl 4-(4-(4-(4-(4-(7-methoxy-5-oxo-2,3,5,11a-tetrahydro-1H-pyrrolo[2,1-c][1,4]benzodiazepine-8-yloxy)butanamido)phenyl)-1-methyl-1H-pyrrole-2-carboxamido)-1-methyl-1H-pyrrole-2-carboxamido)-1-methyl-1H-pyrrole-2-carboxylate], the IC50 came to 0.86 nM in the experiment with A431 (epidermoid); 2.3 nM in the experiment on A549 (lung); 0.24 nM with A2780 (ovarian); 0.31 nM with MCF7 (breast); 0.59 nM in the experiment on MDAMB-231 (breast); 0.31 nM in the experiment with Mia Paca 2. The IC50 in the experiment on WI38 amounted to 41.3 nM; in the experiment on primary CLL cells, 0.96 nM.

Take `COC(=O)c1cc(-c2ccc(NC(=O)c3cc(-c4ccc(NC(=O)CCCOc5cc6c(cc5OC)C(=O)N5CCC[C@H]5C=N6)cc4)cn3C)cc2)cn1C` [Compound 16b, (S)-methyl 4-(4-(4-(4-(4-(7-methoxy-5-oxo-2,3,5,11a-tetrahydro-1H-pyrrolo[2,1-c][1,4]benzodiazepine-8-yloxy)butanamido)phenyl)-1-methyl-1H-pyrrole-2-carboxamido)phenyl)-1-methyl-1H-pyrrole-2-carboxylate]: the IC50 was determined as 2.91 nM in the experiment with A431 (epidermoid); 0.54 nM in the experiment with A549 (lung); 0.56 nM with A2780 (ovarian); 0.9 nM in the experiment on MCF7 (breast); 0.46 nM with MDAMB-231 (breast); 0.35 nM with Mia Paca 2. Moreover, the IC50 with WI38 amounted to 159 nM; with primary CLL cells it was 4.7 nM.

On to `COC(=O)c1cc(-c2ccc(NC(=O)CCCOc3cc4c(cc3OC)C(=O)N3CCC[C@H]3C=N4)cc2)cn1C` [Compound 16a, (S)-methyl 4-(4-(4-(7-methoxy-5-oxo-2,3,5,11a-tetrahydro-1H-pyrrolo[2,1-c][1,4]benzodiazepine-8-yloxy)butanamido)phenyl)-1-methyl-1H-pyrrole-2-carboxylate], for which the IC50 in the experiment with A431 (epidermoid) is 2.31 nM; with A549 (lung), 7.5 nM; in the experiment on A2780 (ovarian) it was 1.87 nM; with MCF7 (breast), 1.91 nM; with MDAMB-231 (breast), 2.11 nM; in the experiment on Mia Paca 2, 1.2 nM. In addition, the concentration for half-maximal inhibition (IC50) in the experiment on WI38 is 160 nM; in the experiment with primary CLL cells, 6.2 nM.

Take `CCOC(=O)c1nc(NC(=O)c2cc(-c3ccc(NC(=O)CCCOc4cc5c(cc4OC)C(=O)N4CCC[C@H]4C=N5)cc3)cn2C)cn1C` [Compound 16d, (S)-ethyl 4-(4-(4-(4-(7-methoxy-5-oxo-2,3,5,11a-tetrahydro-1H-pyrrolo[2,1-c][1,4]benzodiazepine-8-yloxy)butanamido)phenyl)-1-methyl-1H-pyrrole-2-carboxamido)-1-methyl-1H-imidazole-2-carboxylate]: the IC50 is 0.19 nM in the experiment on A431 (epidermoid); 0.47 nM in the experiment with A549 (lung); 0.15 nM in the experiment with A2780 (ovarian); 0.37 nM in the experiment on MCF7 (breast); 0.45 nM in the experiment on MDAMB-231 (breast); 0.11 nM with Mia Paca 2. Further, the IC50 with WI38 was found to be 1240 nM; in the experiment on primary CLL cells it was 3 nM.

For the origin of these results see patent US9376440B2, “Pyrrolobenzodiazepines as antiproliferative agents” (MEDIMMUNE LIMITED, priority 2012, dated 2016).
